In experiment [1] the target is T1, human TRPV1 (hTRPV1) (Homo sapiens, UniProt Q8NER1).
T1 construct: host or cells: HEK (PrecisION hTRPV1-HEK recombinant cell line)
Description: Ca2+ influx assay, antagonism against capsaicin in hTRPV1-HEK recombinant cells. The format is cell-based. Particulars: capsaicin 10 nM as activator, Fluo4-NW fluorescence, read-out: hTRPV1 IC50 [cap].

Experiment [2] concerns the target T1, human TRPV1 (hTRPV1). Kind of experiment: Evaluation of human pH inhibitory activity in hTRPV1-HEK recombinant cells. Particulars: inhibition of activation at final pH 6.0, test substance 3 μM. Type of experiment: cell-based. As for the experimental part:
Evaluation of Human pH Inhibitory Activity
PrecisION™ hTRPV1-HEK recombinant cells (CYL3063) were purchased from Millipore and used. After culturing the above cells under the conditions of 37° C. and 5% CO2, the cells were inoculated in a 96-well plate at the density of 5×10^4 cells/well, followed by culture for 16 hours. Then, the medium was removed and 100 uL of a staining solution was put into each well, followed by culture for 30 minutes under the conditions of 37° C. and 5% CO2. After 30 minutes, all of the existing staining solution was removed and replaced with 100 uL of HBSS. Thereafter, the cells were acclimatized to room temperature for 15 minutes, and the test substances (example compounds and comparative example compounds of the present invention) were added to each well, followed by culture at room temperature for 15 minutes. Then, the final pH was adjusted to 6.0 using MES, and fluorescence was measured (ex485/em535). In the pH assay, the efficacy of the drug was evaluated using BCTC as a TRPV1 antagonist.

As a reminder, the IC50 is the concentration at which inhibition is half-maximal.

T1 sequence (Q8NER1 whole entry): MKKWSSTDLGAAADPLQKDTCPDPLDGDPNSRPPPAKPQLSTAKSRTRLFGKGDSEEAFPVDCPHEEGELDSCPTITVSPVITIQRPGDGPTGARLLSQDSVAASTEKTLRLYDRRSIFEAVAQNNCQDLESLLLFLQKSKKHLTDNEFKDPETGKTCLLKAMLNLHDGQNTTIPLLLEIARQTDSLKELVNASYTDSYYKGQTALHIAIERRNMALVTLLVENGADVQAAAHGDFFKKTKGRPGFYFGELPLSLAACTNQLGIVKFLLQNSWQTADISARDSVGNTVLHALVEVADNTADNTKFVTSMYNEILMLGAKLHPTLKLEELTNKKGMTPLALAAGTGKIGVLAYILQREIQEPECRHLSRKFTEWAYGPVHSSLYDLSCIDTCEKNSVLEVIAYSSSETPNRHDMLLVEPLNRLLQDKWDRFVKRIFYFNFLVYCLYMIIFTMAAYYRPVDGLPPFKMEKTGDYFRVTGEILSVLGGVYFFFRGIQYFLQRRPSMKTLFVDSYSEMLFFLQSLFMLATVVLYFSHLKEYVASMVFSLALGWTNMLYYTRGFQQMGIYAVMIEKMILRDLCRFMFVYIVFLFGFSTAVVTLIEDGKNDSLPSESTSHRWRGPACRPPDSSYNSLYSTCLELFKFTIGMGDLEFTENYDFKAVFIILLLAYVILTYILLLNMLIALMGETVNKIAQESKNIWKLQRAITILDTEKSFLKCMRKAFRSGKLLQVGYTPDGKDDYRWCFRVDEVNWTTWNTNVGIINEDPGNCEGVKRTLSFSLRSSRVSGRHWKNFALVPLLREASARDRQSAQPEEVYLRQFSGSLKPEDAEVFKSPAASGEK

On to `O=C(/C=C/c1sc(C(F)(F)F)nc1-c1cccc(Cl)c1)Nc1cccc2[nH]c(=O)[nH]c12` [Example 54, (E)-3-(4-(3-chlorophenyl)-2-(trifluoromethyl)thiazol-5-yl)-N-(2-oxo-2,3-dihydro-1H-benzo[d]imidazol-4-yl)acrylamide], for which the IC50 at human TRPV1 (hTRPV1) [1] amounted to 55.7 nM. For the same compound, the “hTRPV1 pH (%, 3 μM)” value at human TRPV1 (hTRPV1) [2] amounted to 63.44%.

Take `O=C(/C=C/c1ccc(C(F)(F)F)nc1OCC1CCCC1)Nc1cccc2[nH]c(=O)[nH]c12` [Example 26, (E)-3-(2-(cyclopentylmethoxy)-6-(trifluoromethyl)pyridin-3-yl)-N-(2-oxo-2,3-dihydro-1H-benzo[d]imidazol-4-yl)acrylamide]: at human TRPV1 (hTRPV1) [1], the half-inhibitory concentration (IC50) came to 54.4 nM. On human TRPV1 (hTRPV1) [2], the “hTRPV1 pH (%, 3 μM)” value worked out at 95.11%.

In the case of `O=C(/C=C/c1ccc(C(F)(F)Cl)nc1OCC1CC1)Nc1cccc2[nH]c(=O)[nH]c12` [Example 17, (E)-3-(6-(chlorodifluoromethyl)-2-(cyclopropylmethoxy)pyridin-3-yl)-N-(2-oxo-2,3-dihydro-1H-benzo[d]imidazol-4-yl)acrylamide], the IC50 at human TRPV1 (hTRPV1) [1] was determined as 56.9 nM. Moreover, the “hTRPV1 pH (%, 3 μM)” value at human TRPV1 (hTRPV1) [2] was determined as 83.20%.

On to `CC1CCN(c2nc(C(F)(F)F)ccc2/C=C/C(=O)Nc2cccc3[nH]c(=O)[nH]c23)CC1` [Example 1, (E)-3-(2-(4-methylpiperidin-1-yl)-6-(trifluoromethyl)pyridin-3-yl)-N-(2-oxo-2,3-dihydro-1H-benzo[d]imidazol-4-yl)acrylamide], for which the IC50 at human TRPV1 (hTRPV1) [1] is 37 nM. Besides, on human TRPV1 (hTRPV1) [2], the “hTRPV1 pH (%, 3 μM)” value is listed as 78.62%.

In the case of `O=C(/C=C/c1ccc(C2CC2)cc1OCC1CC1)Nc1cccc2[nH]c(=O)[nH]c12` [Example 46, (E)-3-(4-cyclopropyl-2-(cyclopropylmethoxy)phenyl)-N-(2-oxo-2,3-dihydro-1H-benzo[d]imidazol-4-yl)acrylamide], at human TRPV1 (hTRPV1) [1], the IC50 came to 72.9 nM. The “hTRPV1 pH (%, 3 μM)” value at human TRPV1 (hTRPV1) [2] was 57.38%.

Consider `CC(C)COc1cc(C(F)(F)F)ccc1/C=C/C(=O)Nc1cccc2[nH]c(=O)[nH]c12` [Example 42, (E)-3-(2-isobutoxy-4-(trifluoromethyl)phenyl)-N-(2-oxo-2,3-dihydro-1H-benzo[d]imidazol-4-yl)acrylamide], for which the IC50 at human TRPV1 (hTRPV1) [1] was found to be 35.4 nM. The “hTRPV1 pH (%, 3 μM)” value at human TRPV1 (hTRPV1) [2] is listed as 78.89%.

With `CC(C)(C)c1ccc(/C=C/C(=O)Nc2cccc3[nH]c(=O)[nH]c23)c(OCC2CC2)c1` [Example 45, (E)-3-(4-(tert-butyl)-2-(cyclopropylmethoxy)phenyl)-N-(2-oxo-2,3-dihydro-1H-benzo[d]imidazol-4-yl)acrylamide], the IC50 on human TRPV1 (hTRPV1) [1] was 79.3 nM. Also, the “hTRPV1 pH (%, 3 μM)” value on human TRPV1 (hTRPV1) [2] is reported as 48.71%.

For `O=C(/C=C/c1ccc(C(F)(F)F)nc1-c1ccco1)Nc1cccc2[nH]c(=O)[nH]c12` [Example 36, (E)-3-(2-(furan-2-yl)-6-(trifluoromethyl)pyridin-3-yl)-N-(2-oxo-2,3-dihydro-1H-benzo[d]imidazol-4-yl)acrylamide], the IC50 at human TRPV1 (hTRPV1) [1] worked out at 11 nM. Further, the “hTRPV1 pH (%, 3 μM)” value at human TRPV1 (hTRPV1) [2] is listed as 100.46%.

In the case of `CC(F)(F)c1ccc(/C=C/C(=O)Nc2cccc3[nH]c(=O)[nH]c23)c(OCC2CC2)n1` [Example 22, (E)-3-(2-(cyclopropylmethoxy)-6-(1,1-difluoroethyl)pyridin-3-yl)-N-(2-oxo-2,3-dihydro-1H-benzo[d]imidazol-4-yl)acrylamide], the 50% inhibitory concentration (IC50) on human TRPV1 (hTRPV1) [1] was 31.2 nM. Besides, the “hTRPV1 pH (%, 3 μM)” value on human TRPV1 (hTRPV1) [2] is on record as 90.86%.

Consider `O=C(/C=C/c1ccc(C(F)(F)F)cc1OCC1CC1)Nc1cccc2[nH]c(=O)[nH]c12` [Example 43, (E)-3-(2-(cyclopropylmethoxy)-4-(trifluoromethyl)phenyl)-N-(2-oxo-2,3-dihydro-1H-benzo[d]imidazol-4-yl)acrylamide], for which, at human TRPV1 (hTRPV1) [1], the IC50 came out at 19.7 nM. The “hTRPV1 pH (%, 3 μM)” value at human TRPV1 (hTRPV1) [2] was found to be 87.68%.

In the case of `CC(C)COc1nc(C(F)(F)F)ccc1CCC(=O)Nc1cccc2[nH]c(=O)[nH]c12` [Example 59, 3-(2-isobutoxy-6-(trifluoromethyl)pyridin-3-yl)-N-(2-oxo-2,3-dihydro-1H-benzo[d]imidazol-4-yl)propaneamide], the IC50 on human TRPV1 (hTRPV1) [1] worked out at 40.7 nM. The “hTRPV1 pH (%, 3 μM)” value on human TRPV1 (hTRPV1) [2] is 59.32%.

Turning to `O=C(/C=C/c1cc(C(F)(F)F)nn1-c1ccc(F)c(Cl)c1)Nc1cccc2[nH]c(=O)[nH]c12` [Example 49, (E)-3-(1-(3-chloro-4-fluorophenyl)-3-(trifluoromethyl)-1H-pyrazol-5-yl)-N-(2-oxo-2,3-dihydro-1H-benzo[d]imidazol-4-yl)acrylamide], the concentration for half-maximal inhibition (IC50) at human TRPV1 (hTRPV1) [1] amounted to 19.9 nM. The “hTRPV1 pH (%, 3 μM)” value at human TRPV1 (hTRPV1) [2] amounted to 21.37%.

Take `CCN(CC)c1nc(C(F)(F)F)ccc1/C=C/C(=O)Nc1cccc2[nH]c(=O)[nH]c12` [Example 6, (E)-3-(2-(diethylamino)-6-(trifluoromethyl)pyridin-3-yl)-N-(2-oxo-2,3-dihydro-1H-benzo[d]imidazol-4-yl)acrylamide]: at human TRPV1 (hTRPV1) [1], the IC50 came out at 10.7 nM. Moreover, the “hTRPV1 pH (%, 3 μM)” value at human TRPV1 (hTRPV1) [2] was found to be 76.92%.

For `Cc1cccc(-n2nc(C(F)(F)F)cc2/C=C/C(=O)Nc2cccc3[nH]c(=O)[nH]c23)c1` [Example 48, (E)-N-(2-oxo-2,3-dihydro-1H-benzo[d]imidazol-4-yl)-3-(1-(m-tolyl)-3-(trifluoromethyl)-1H-pyrazol-5-yl)acrylamide], the IC50 at human TRPV1 (hTRPV1) [1] came to 9.95 nM. The “hTRPV1 pH (%, 3 μM)” value on human TRPV1 (hTRPV1) [2] was found to be 29.43%.

For `O=C(/C=C/c1ccc(C(F)(F)F)nc1OC1CCC1)Nc1cccc2[nH]c(=O)[nH]c12` [Example 11, (E)-3-(2-cyclobutoxy-6-(trifluoromethyl)pyridin-3-yl)-N-(2-oxo-2,3-dihydro-1H-benzo[d]imidazol-4-yl)acrylamide], the IC50 on human TRPV1 (hTRPV1) [1] is 37.8 nM. The “hTRPV1 pH (%, 3 μM)” value at human TRPV1 (hTRPV1) [2] is 88.23%.

On to `CC(C)CSc1nc(C(F)(F)F)ccc1/C=C/C(=O)Nc1cccc2[nH]c(=O)[nH]c12` [Example 27, (E)-3-(2-(isobutylthio)-6-(trifluoromethyl)pyridin-3-yl)-N-(2-oxo-2,3-dihydro-1H-benzo[d]imidazol-4-yl)acrylamide], for which the IC50 on human TRPV1 (hTRPV1) [1] was 40.9 nM. Moreover, the “hTRPV1 pH (%, 3 μM)” value at human TRPV1 (hTRPV1) [2] is 78.45%.

For `CC1CC1COc1nc(C(F)(F)F)ccc1/C=C/C(=O)Nc1cccc2[nH]c(=O)[nH]c12` (centres unmarked) [Example 16, (E)-3-(2-((2-methylcyclopropyl)methoxy)-6-(trifluoromethyl)pyridin-3-yl)-N-(2-oxo-2,3-dihydro-1H-benzo[d]imidazol-4-yl)acrylamide], the IC50 at human TRPV1 (hTRPV1) [1] was 86 nM. Also, the “hTRPV1 pH (%, 3 μM)” value on human TRPV1 (hTRPV1) [2] is 97.34%.

Regarding `O=C(/C=C/c1ccc(C(F)(F)F)nc1-c1ccc(F)c(Cl)c1)Nc1cccc2[nH]c(=O)[nH]c12` [Example 33, (E)-3-(2-(3-chloro-4-fluorophenyl)-6-(trifluoromethyl)pyridin-3-yl)-N-(2-oxo-2,3-dihydro-1H-benzo[d]imidazol-4-yl)acrylamide], the IC50 at human TRPV1 (hTRPV1) [1] is 27.4 nM. The “hTRPV1 pH (%, 3 μM)” value at human TRPV1 (hTRPV1) [2] worked out at 69.89%.

With `O=C(/C=C/c1ccc(C(F)F)nc1OCC1CC1)Nc1cccc2[nH]c(=O)[nH]c12` [Example 21, (E)-3-(2-(cyclopropylmethoxy)-6-(difluoromethyl)pyridin-3-yl)-N-(2-oxo-2,3-dihydro-1H-benzo[d]imidazol-4-yl)acrylamide], at human TRPV1 (hTRPV1) [1], the IC50 is 26.1 nM. Also, at human TRPV1 (hTRPV1) [2], the “hTRPV1 pH (%, 3 μM)” value was determined as 79.89%.

These data come from patent publication US12653814B2, “Benzimidazolone-based cinnamamide derivative as TRPV1 antagonist and pharmaceutical composition for treatment or prevention of pain containing same as active ingredient” (JMACKEM CO., LTD, priority 2020, dated 2026).
